This passage reports DC50 results from publication PMC11967169 (RSC Advances, 2025).

This assay addresses hepatocyte growth factor receptor (MET), exon 14 skipped (Homo sapiens, UniProt P08581, DEL963-1009). In words: PROTAC degradation of METex14Δ-GFP by live cell imaging in HEK293. The class given is cell-based.

Broadly, the DC50 is the concentration giving 50% degradation. Regarding `COc1cc2c(Oc3ccc(NC(=O)C4(C(=O)Nc5ccc(F)cc5)CC4)cc3F)ccnc2cc1OCCCOCCCOCCC(=O)N[C@H](C(=O)N1C[C@H](O)C[C@H]1C(=O)NCc1ccc(-c2scnc2C)cc1)C(C)(C)C`, half-maximal degradation (DC50) was put at 2610 ± 115 nM.
